In ChEMBL document CHEMBL5042477, “Potent Cyclic Peptide Inhibitors of FXIIa Discovered by mRNA Display with Genetic Code Reprogramming” (J Med Chem, 2021) one finds IC50 data, which are given here for 20 compounds.

The structures appear in SMILES notation. Where a SMILES comes first, the peptide text is derived from it. Bridges are numbered along the chain shown (N, C = ends). [ ]: non-standard residue; d: D form. Phe(2-CF3) = N[C@@H](Cc1ccccc1C(F)(F)F)C(=O)O; Phe(2-CN) = N#Cc1ccccc1C[C@H](N)C(=O)O; 1Nal = N[C@@H](Cc1cccc2ccccc12)C(=O)O; 2Nal = N[C@@H](Cc1ccc2ccccc2c1)C(=O)O; hArg = N=C(N)NCCCC[C@H](N)C(=O)O; 2Pal = N[C@@H](Cc1ccccn1)C(=O)O; 3Pal = N[C@@H](Cc1cccnc1)C(=O)O; 4Pal = N[C@@H](Cc1ccncc1)C(=O)O; Cha = N[C@@H](CC1CCCCC1)C(=O)O; Agb = N=C(N)NCC[C@H](N)C(=O)O; Orn = NCCC[C@H](N)C(=O)O

In this experiment the target is T1, Coagulation factor XII (Homo sapiens, UniProt P00748).
T1 sequence (P00748 whole entry): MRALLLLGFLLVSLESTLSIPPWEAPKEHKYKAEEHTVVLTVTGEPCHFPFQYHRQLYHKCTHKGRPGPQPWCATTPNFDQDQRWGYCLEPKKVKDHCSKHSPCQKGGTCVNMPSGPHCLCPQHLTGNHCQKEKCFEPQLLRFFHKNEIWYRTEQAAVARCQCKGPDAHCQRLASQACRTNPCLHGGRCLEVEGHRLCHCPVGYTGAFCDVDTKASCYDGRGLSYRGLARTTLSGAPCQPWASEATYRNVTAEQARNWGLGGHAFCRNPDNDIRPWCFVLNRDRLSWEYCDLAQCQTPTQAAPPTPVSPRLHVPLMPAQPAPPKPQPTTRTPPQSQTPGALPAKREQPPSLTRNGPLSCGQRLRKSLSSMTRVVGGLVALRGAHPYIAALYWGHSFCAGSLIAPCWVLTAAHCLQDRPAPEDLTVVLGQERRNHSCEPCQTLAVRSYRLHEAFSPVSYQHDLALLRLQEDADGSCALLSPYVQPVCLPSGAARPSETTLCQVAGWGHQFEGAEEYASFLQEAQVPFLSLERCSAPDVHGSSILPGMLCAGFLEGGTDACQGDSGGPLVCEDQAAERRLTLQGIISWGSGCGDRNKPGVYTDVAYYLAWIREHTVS
Briefly: Inhibition of human factor 12a using H-D-Pro-Phe-Arg-p-nitroanilide as chromogenic substrate assessed as liberation of p-nitroaniline measured every 5 mins for 60 min by multimode plate reader analysis.
The IC50 is the concentration that inhibits the measured activity by half. Turning to `CC(C)C[C@@H]1NC(=O)[C@H](Cc2ccc(O)cc2)NC(=O)CSC[C@@H](C(N)=O)NC(=O)CNC(=O)CNC(=O)[C@H](CCCNC(=N)N)NC(=O)[C@H](CC(=O)O)NC(=O)[C@H](CCCCN)NC(=O)[C@@H]2CCCN2C(=O)[C@H](CCNC(=N)N)NC(=O)[C@H](Cc2ccccc2)NC(=O)[C@H](CCCNC(=N)N)NC1=O` ({CH2CO}-YLRF[Agb]PKDRGGC-NH2; thioether N-12), the half-inhibitory concentration (IC50) came out at 3300 nM.

Consider `CC(C)C[C@@H]1NC(=O)[C@H](Cc2ccc(O)cc2)NC(=O)CSC[C@@H](C(N)=O)NC(=O)CNC(=O)CNC(=O)[C@H](CCCNC(=N)N)NC(=O)[C@H](CC(=O)O)NC(=O)[C@H](CCCCN)NC(=O)[C@@H]2CCCN2C(=O)[C@H](CCCN)NC(=O)[C@H](Cc2ccccc2)NC(=O)[C@H](CCCNC(=N)N)NC1=O` ({CH2CO}-YLRF[Orn]PKDRGGC-NH2; thioether N-12), for which the half-maximal inhibitory concentration (IC50) amounted to 2100 nM.

For `CC(C)C[C@@H]1NC(=O)[C@H](Cc2ccc(O)cc2)NC(=O)CSC[C@@H](C(N)=O)NC(=O)CNC(=O)CNC(=O)[C@H](CCCNC(=N)N)NC(=O)[C@H](CC(=O)O)NC(=O)[C@H](CCCCN)NC(=O)[C@@H]2CCCN2C(=O)[C@H](CCCCNC(=N)N)NC(=O)[C@H](Cc2ccccc2)NC(=O)[C@H](CCCNC(=N)N)NC1=O` ({CH2CO}-YLRF[hArg]PKDRGGC-NH2; thioether N-12), the IC50 was 470 nM.

In the case of `CC(C)C[C@@H]1NC(=O)[C@H](CCCNC(=N)N)NC(=O)[C@H](CC(C)C)NC(=O)[C@H](Cc2ccc(O)cc2)NC(=O)CSC[C@@H](C(N)=O)NC(=O)CNC(=O)CNC(=O)[C@H](CCC(N)=O)NC(=O)[C@H](CC(N)=O)NC(=O)[C@H]([C@@H](C)O)NC(=O)[C@@H]2CCCN2C(=O)[C@H](C)NC1=O` ({CH2CO}-YLRLAPTNQGGC-NH2; thioether N-12), the IC50 was 60000 nM.

As to `CC(C)C[C@@H]1NC(=O)[C@H](Cc2ccc(O)cc2)NC(=O)CSC[C@@H](C(N)=O)NC(=O)CNC(=O)CNC(=O)[C@H](CCC(N)=O)NC(=O)[C@H](CC(N)=O)NC(=O)[C@H]([C@@H](C)O)NC(=O)[C@H](C)NC(=O)[C@H](CCCCN)NC(=O)[C@H](CC(C)C)NC(=O)[C@H](CCCNC(=N)N)NC1=O` ({CH2CO}-YLRLKATNQGGC-NH2; thioether N-12), the IC50 is 2300 nM.

In the case of `CC(C)C[C@@H]1NC(=O)[C@H](Cc2ccc(O)cc2)NC(=O)CSC[C@@H](C(N)=O)NC(=O)CNC(=O)CNC(=O)[C@H](CCC(N)=O)NC(=O)[C@H](CC(N)=O)NC(=O)[C@H](C)NC(=O)[C@@H]2CCCN2C(=O)[C@H](CCCCN)NC(=O)[C@H](CC(C)C)NC(=O)[C@H](CCCNC(=N)N)NC1=O` ({CH2CO}-YLRLKPANQGGC-NH2; thioether N-12), the 50% inhibitory concentration (IC50) is 450 nM.

Take `CC(C)C[C@@H]1NC(=O)[C@H](Cc2ccc(O)cc2)NC(=O)CSC[C@@H](C(N)=O)NC(=O)CNC(=O)CNC(=O)[C@H](CCC(N)=O)NC(=O)[C@H](C)NC(=O)[C@H]([C@@H](C)O)NC(=O)[C@@H]2CCCN2C(=O)[C@H](CCCCN)NC(=O)[C@H](CC(C)C)NC(=O)[C@H](CCCNC(=N)N)NC1=O` ({CH2CO}-YLRLKPTAQGGC-NH2; thioether N-12): the IC50 came out at 590 nM.

Consider `CC(C)C[C@@H]1NC(=O)[C@H](Cc2ccc(O)cc2)NC(=O)CSC[C@@H](C(N)=O)NC(=O)CNC(=O)CNC(=O)[C@H](C)NC(=O)[C@H](CC(N)=O)NC(=O)[C@H]([C@@H](C)O)NC(=O)[C@@H]2CCCN2C(=O)[C@H](CCCCN)NC(=O)[C@H](CC(C)C)NC(=O)[C@H](CCCNC(=N)N)NC1=O` ({CH2CO}-YLRLKPTNAGGC-NH2; thioether N-12), for which the IC50 came to 1000 nM.

In the case of `CC(C)C[C@@H]1NC(=O)[C@H](Cc2ccc(O)cc2)NC(=O)CSC[C@@H](C(N)=O)NC(=O)CNC(=O)[C@H](C)NC(=O)[C@H](CCC(N)=O)NC(=O)[C@H](CC(N)=O)NC(=O)[C@H]([C@@H](C)O)NC(=O)[C@@H]2CCCN2C(=O)[C@H](CCCCN)NC(=O)[C@H](CC(C)C)NC(=O)[C@H](CCCNC(=N)N)NC1=O` ({CH2CO}-YLRLKPTNQAGC-NH2; thioether N-12), the IC50 amounted to 21000 nM.

Consider `CC(C)C[C@@H]1NC(=O)[C@H](Cc2ccc(O)cc2)NC(=O)CSC[C@@H](C(N)=O)NC(=O)[C@H](C)NC(=O)CNC(=O)[C@H](CCC(N)=O)NC(=O)[C@H](CC(N)=O)NC(=O)[C@H]([C@@H](C)O)NC(=O)[C@@H]2CCCN2C(=O)[C@H](CCCCN)NC(=O)[C@H](CC(C)C)NC(=O)[C@H](CCCNC(=N)N)NC1=O` ({CH2CO}-YLRLKPTNQGAC-NH2; thioether N-12), for which the half-inhibitory concentration (IC50) came out at 73000 nM.

Turning to `COc1ccc(C[C@@H]2NC(=O)[C@H](CCCNC(=N)N)NC(=O)[C@H](CC(C)C)NC(=O)[C@H](Cc3ccc(O)cc3)NC(=O)CSC[C@@H](C(N)=O)NC(=O)CNC(=O)CNC(=O)[C@H](CCCNC(=N)N)NC(=O)[C@H](CC(=O)O)NC(=O)[C@H](CCCCN)NC(=O)[C@@H]3CCCN3C(=O)[C@H](CCCNC(=N)N)NC2=O)cc1` ({CH2CO}-YLRY(Me)RPKDRGGC-NH2; thioether N-12), the IC50 was 560 nM.

Take `CC(C)C[C@@H]1NC(=O)[C@H](Cc2ccc(O)cc2)NC(=O)CSC[C@@H](C(N)=O)NC(=O)CNC(=O)CNC(=O)[C@H](CCCNC(=N)N)NC(=O)[C@H](CC(=O)O)NC(=O)[C@H](CCCCN)NC(=O)[C@@H]2CCCN2C(=O)[C@H](CCCNC(=N)N)NC(=O)[C@H](Cc2ccc(O)cc2)NC(=O)[C@H](CCCNC(=N)N)NC1=O` ({CH2CO}-YLRYRPKDRGGC-NH2; thioether N-12): the IC50 came out at 260 nM.

Turning to `CC(C)C[C@@H]1NC(=O)[C@H](Cc2ccc(O)cc2)NC(=O)CSC[C@@H](C(N)=O)NC(=O)CNC(=O)CNC(=O)[C@H](CCCNC(=N)N)NC(=O)[C@H](CC(=O)O)NC(=O)[C@H](CCCCN)NC(=O)[C@@H]2CCCN2C(=O)[C@H](CCCNC(=N)N)NC(=O)[C@H](Cc2cccc3ccccc23)NC(=O)[C@H](CCCNC(=N)N)NC1=O` ({CH2CO}-YLR[1Nal]RPKDRGGC-NH2; thioether N-12), the IC50 is 68 nM.

As to `CC(C)C[C@@H]1NC(=O)[C@H](Cc2ccc(O)cc2)NC(=O)CSC[C@@H](C(N)=O)NC(=O)CNC(=O)CNC(=O)[C@H](CCCNC(=N)N)NC(=O)[C@H](CC(=O)O)NC(=O)[C@H](CCCCN)NC(=O)[C@@H]2CCCN2C(=O)[C@H](CCCNC(=N)N)NC(=O)[C@H](Cc2ccc3ccccc3c2)NC(=O)[C@H](CCCNC(=N)N)NC1=O` ({CH2CO}-YLR[2Nal]RPKDRGGC-NH2; thioether N-12), the IC50 is 50 nM.

`CC(C)C[C@@H]1NC(=O)[C@H](Cc2ccc(O)cc2)NC(=O)CSC[C@@H](C(N)=O)NC(=O)CNC(=O)CNC(=O)[C@H](CCCNC(=N)N)NC(=O)[C@H](CC(=O)O)NC(=O)[C@H](CCCCN)NC(=O)[C@@H]2CCCN2C(=O)[C@H](CCCNC(=N)N)NC(=O)[C@H](Cc2ccccn2)NC(=O)[C@H](CCCNC(=N)N)NC1=O` ({CH2CO}-YLR[2Pal]RPKDRGGC-NH2; thioether N-12): the concentration for half-maximal inhibition (IC50) was found to be 96 nM.

As for `CC(C)C[C@@H]1NC(=O)[C@H](Cc2ccc(O)cc2)NC(=O)CSC[C@@H](C(N)=O)NC(=O)CNC(=O)CNC(=O)[C@H](CCCNC(=N)N)NC(=O)[C@H](CC(=O)O)NC(=O)[C@H](CCCCN)NC(=O)[C@@H]2CCCN2C(=O)[C@H](CCCNC(=N)N)NC(=O)[C@H](Cc2cccnc2)NC(=O)[C@H](CCCNC(=N)N)NC1=O` ({CH2CO}-YLR[3Pal]RPKDRGGC-NH2; thioether N-12), the IC50 was found to be 170 nM.

Regarding `CC(C)C[C@@H]1NC(=O)[C@H](Cc2ccc(O)cc2)NC(=O)CSC[C@@H](C(N)=O)NC(=O)CNC(=O)CNC(=O)[C@H](CCCNC(=N)N)NC(=O)[C@H](CC(=O)O)NC(=O)[C@H](CCCCN)NC(=O)[C@@H]2CCCN2C(=O)[C@H](CCCNC(=N)N)NC(=O)[C@H](Cc2ccncc2)NC(=O)[C@H](CCCNC(=N)N)NC1=O` ({CH2CO}-YLR[4Pal]RPKDRGGC-NH2; thioether N-12), the IC50 was 120 nM.

`CC(C)C[C@@H]1NC(=O)[C@H](Cc2ccc(O)cc2)NC(=O)CSC[C@@H](C(N)=O)NC(=O)CNC(=O)CNC(=O)[C@H](CCCNC(=N)N)NC(=O)[C@H](CC(=O)O)NC(=O)[C@H](CCCCN)NC(=O)[C@@H]2CCCN2C(=O)[C@H](CCCNC(=N)N)NC(=O)[C@H](CC2CCCCC2)NC(=O)[C@H](CCCNC(=N)N)NC1=O` ({CH2CO}-YLR[Cha]RPKDRGGC-NH2; thioether N-12): the half-inhibitory concentration (IC50) was 53 nM.

On to `CC(C)C[C@@H]1NC(=O)[C@H](Cc2ccc(O)cc2)NC(=O)CSC[C@@H](C(N)=O)NC(=O)CNC(=O)CNC(=O)[C@H](CCCNC(=N)N)NC(=O)[C@H](CC(=O)O)NC(=O)[C@H](CCCCN)NC(=O)[C@@H]2CCCN2C(=O)[C@H](CCCNC(=N)N)NC(=O)[C@H](Cc2ccccc2C(F)(F)F)NC(=O)[C@H](CCCNC(=N)N)NC1=O` ({CH2CO}-YLR[Phe(2-CF3)]RPKDRGGC-NH2; thioether N-12), for which the IC50 came to 42 nM.

Consider `CC(C)C[C@@H]1NC(=O)[C@H](Cc2ccc(O)cc2)NC(=O)CSC[C@@H](C(N)=O)NC(=O)CNC(=O)CNC(=O)[C@H](CCCNC(=N)N)NC(=O)[C@H](CC(=O)O)NC(=O)[C@H](CCCCN)NC(=O)[C@@H]2CCCN2C(=O)[C@H](CCCNC(=N)N)NC(=O)[C@H](Cc2ccccc2C#N)NC(=O)[C@H](CCCNC(=N)N)NC1=O` ({CH2CO}-YLR[Phe(2-CN)]RPKDRGGC-NH2; thioether N-12), for which the IC50 was 120 nM.
